# Key:
# [1] = tested on: 4T1 murine breast cancer cells; experiment: Cell proliferation MTS assay; format: cell-based; conditions: Mus musculus, 96 h
# [2] = tested on: Miapaca-2 cells; experiment: Cell clonogenic assay, drug alone; format: cell-based, human; conditions: Miapaca-2, 3 µM
# [3] = tested on: 4T1 cells; experiment: Cell clonogenic assay, drug alone; format: cell-based, murine; conditions: 4T1, 3 µM
structure (smiles),measurement,setting,value
"CC1=C2C[C@H]3[C@@H](CC=C4C[C@@H](O)CC[C@@]43C)[C@@H]2CC[C@]12O[C@@H]1C[C@H](C)CN[C@H]1[C@H]2C [free CPA, cyclopamine]",IC50,[1],11.3 ± 1.2 µM
same,Reduction of colony numbers,[2],17.7% ± 4.3
same,Reduction of colony numbers,[3],6.7% ± 6.1
